In a melting point compilation (Tetko et al.; mined from patent text by program, amines drawn as free bases though some values may be those of a salt):
Residues, ends and D or L forms follow the SMILES beside them. *: point of attachment. Cbz = O=C(OCc1ccccc1)*

SMILES	melting point [°C]
CC(=O)NCC=C1CCc2ccc3nc(C)oc3c21	188 to 190
COc1cc(C(=O)CC(=O)c2ccc(O)cc2O)cc(OC)c1OC	284 to 286
CC(=O)OC(c1ccc(Cl)c2nc3n(c12)CCCN3c1ccc(Cl)cc1Cl)C1CC1 (stereo not drawn)	208 to 210
c1cc2c(c(N3CCNCC3)n1)CCO2	89.5
Nc1cc2c(cc1Cl)N1CCCN=C1C2=O	> 270
CC(=O)Nc1ccc2c3c1c(=O)c(C(=O)O)cn3CCC2	> 300
CC(=O)N1CC=C(c2cc(C)c(O)cc2C)CC1	220
Cc1oc(-c2ccco2)nc1CCc1ccc(CCCCC2OC(=O)NC2=O)cc1 (stereo not drawn)	140 to 141
CCCCc1sc2ccc([N+](=O)[O-])cc2c1C(=O)c1ccc(OCCCN(CCCC)CCCC)cc1	88
CC(=O)c1c(O)ccc2c(C)cc(=O)oc12	167 to 169
CCN(CC)Cc1nnc2n1-c1ccc(Cl)cc1C(c1ccccc1)=NC2	130 to 132
CN(N)C1=Nc2ccc(Cl)cc2C(c2ccccc2)=NC1	167 to 173
O=S1(=O)NCN(CCF)c2ccc(I)cc21	156 to 158
CCOC(=O)COc1cc2c(cc1Cl)C(=O)CC1(CCCCC1)O2	116 to 117
CCCCCCCCC(CO)CO	48 to 51
COC(=O)C(CCCNC(=N)N[N+](=O)[O-])NC(=O)CCCC(=O)NCc1ccccc1 (single isomer, unassigned; (-))	97 to 99
C=CCn1cnc2c1c(=O)n(CCC(C)C(C)=O)c(=O)n2C (stereo not drawn)	73 to 74
OC(C=C(Cl)Cl)(Cn1cncn1)c1ccc(Cl)cc1 (stereo not drawn)	95 to 99
CN(c1cccc2cc(C3=NCC(CN4CCS(=O)CC4)S3)[nH]c12)S(=O)(=O)c1cccs1 (stereo not drawn)	204
CCCCCCCCCCc1ccc(C(=O)c2cc(Br)c(C(=O)c3ccc(CCCCCCCCCC)cc3)cc2Br)cc1	128 to 129
COC(=O)OCC(CO)CCn1cnc2cnc(N)nc21 (stereo not drawn)	129 to 132
O=C1c2ccccc2C(=O)N1CCc1c[nH]c(=O)[nH]c1=O	324 to 327
FC(F)(F)c1ccc(-c2[nH]c(=S)[nH]c2-c2ccc(C(F)(F)F)cc2)cc1	312 to 315
NC(=O)c1cccc(-c2nc3sccn3c2-c2ccnc(N[C@@H]3CCCN(S(=O)(=O)c4ccc(Cl)cc4)C3)n2)c1	168 to 170
CC(C)(C#N)Cc1ccccc1CC(C)(C)C#N	76 to 80

SMILES	melting point [°C]
C[C@@H](NC(=O)c1c[nH]c2ncc(-c3nn(C)c4cc(Cl)ccc34)nc12)C(=O)N1CC(F)C1	257 to 260
N#CSc1ccc(F)c(C#N)c1	39 to 41
N#Cc1cccc2c3c([nH]c12)CCNC3	230 to 235
O=c1cnc(C(F)(F)F)cn1-c1c(Cl)cc(C(F)(F)F)cc1[N+](=O)[O-]	145 to 147
OC1C(CF)OC(n2cnc3c(NN4CCCCC4)nc(Cl)nc32)C1O (stereo not drawn)	199 to 201
CC1SC(N2N=C(c3ccc([N+](=O)[O-])cc3)c3cc4c(cc3CC2C)OCO4)=NC1=O (stereo not drawn)	213 to 214
CCCc1nc(C=NNC(=O)OCC)c(C)[nH]1	184 to 188
Cc1c(Cc2ccc(Cl)cc2)sc2nc(N)[nH]c(=O)c12	300 to 320
Nc1nc2ccc3cc(Br)c([N+](=O)[O-])cc3c2c(=O)[nH]1	> 250
Cc1c(C#N)c(N)n(-c2ccc([N+](=O)[O-])cc2)c1C	310
ON=C1CN2[C@H]3CC[C@@H]2[C@@H]1[C@@H](c1ccc(Cl)c(Cl)c1)C3	45 to 52
COc1cccc2c1C(=O)c1c(O)cc(CO)cc1C2=O	215 to 216
CN(C)C(=O)C(C#N)=C(O)c1ccc(C(F)(F)F)cc1[N+](=O)[O-]	104 to 106
COc1cc2c(cc1N1CCN(CC3=CC4=CCSC4=C3)CC1)OCC2	186 to 190
CN1CCN=C(c2ccccc2)c2cc([N+](=O)[O-])ccc21	186 to 187
O=[N+]([O-])c1cc(-c2nc(-c3ccco3)no2)ccc1Cl	136 to 138
CCCOc1cc2c(c3c(=O)c(-c4ccc(OC)cc4)cn(CCCN4CCOCC4)c13)CCC2	135 to 137
Cc1nc2ccnn2c2c1CCN2C(C)(C)C	144 to 146
CC1Cc2cc(O)c(Cl)c(Cl)c2C1=O (stereo not drawn)	224 to 230
CS(=O)(=O)OC[C@@H]1Cc2cc3ccccc3n2C[C@H]1COS(C)(=O)=O (relative stereo)	139 to 141
CCCCCCCCCCCC(=O)c1ccc(-c2ccc(O)c(F)c2)cc1	123 to 124
CCCCCC(O)(c1cncnc1)C(C)(C)C (stereo not drawn)	66 to 67
CN1CCCC1CCN1CCN(CCC2CCCN2C)C1=C(C#N)C#N (stereo not drawn)	121 to 123
COc1cccc2c1C(O)c1ccccc1C21CCN(C)CC1 (stereo not drawn)	149 to 151

Now from value to compound:

melting point [°C]	SMILES
222 to 223	Cc1ccc(C(=O)c2c(OCc3ccccc3)cc(C(=O)O)cc2[N+](=O)[O-])cc1
110 to 111	COC(=O)CC1c2ccccc2C(=O)N1c1ccc(Cl)cn1 (stereo not drawn)
160	CCOC(=O)N1CCC(Cc2nc3ccccc3n2Cc2cccc(C)n2)CC1
169 to 170	NC(=O)c1cccc(-c2ccc(Cl)c3cc(Cc4cc(F)cc(Cl)c4)sc23)c1
217 to 219	COc1cc(OC)c2c(=O)[nH]c(-c3cccc(-c4ccc(C(=O)N(C)C)cc4)n3)nc2c1
108 to 109	COc1ccc(COC(=O)NCCc2c[nH]c3ccccc23)cc1
135	O=C(Oc1ccccc1)c1ccccc1S
114 to 116	CC(C)(C)c1ccc(OCCOc2ccccc2[N+](=O)[O-])c([N+](=O)[O-])c1
197 to 199	O=C1c2cccc(O)c2C2(OCCS2)c2c(O)cccc21
181 to 184	CS(=O)(=O)Oc1cc(C=CC(=O)c2ccccc2)cc([N+](=O)[O-])c1OS(C)(=O)=O
109 to 110	CN(C)C(=N)Nc1ccccc1-c1cccc(F)c1
205 to 206	O=C(Nc1ccccc1Cl)N1CCc2cc(S(=O)(=O)N3CCN(c4cccc(Cl)c4)CC3)ccc21
227 to 229	O=C1C2CC3=C(CN2C(=O)N1c1ccccc1)N(Cc1ccccc1)CN3 (stereo not drawn)
120 to 122	COCCc1ccc(OCC(O)C(C)(C)N)cc1 (stereo not drawn)
111 to 112	CCOC(=O)CCc1cn(Cc2cccc(C(=O)Nc3cccnc3)c2)nc1-c1ccccc1
37 to 38	O=C1N(CCCOCc2ccccc2)c2ccccc2C12COc1cc3c(cc12)OCCO3 (stereo not drawn)
128 to 130	COc1ccc2c(c1)CCC(=COC(=O)c1ccccc1)C2=O
164 to 166	CC(C)c1cccc(C(C)C)c1NC(=O)C1CCCC(Cc2ccccn2)(c2ccccc2)C1=O (stereo not drawn)
122 to 123	COc1ccc2c(c1)OCC21C(=O)N(Cc2ccccn2)c2ccccc21 (stereo not drawn)
109 to 110	Cc1oc(-c2ccccc2)nc1CCOc1ccc(CC#N)cc1
230	Nc1ccccc1NC(=O)c1ccc(CNc2c(NCc3cccnc3)c(=O)c2=O)cc1
76.1 to 79.9	CC(C(=O)NCCCCn1cnc2c(N)nc3ccccc3c21)c1ccc(-c2ccccc2)c(F)c1 (stereo not drawn)
91 to 93	COC(=O)[C@H](Cc1ccccc1)NC(=O)[C@H](CC(C)C)NC(=O)OCc1ccccc1 (Cbz-Leu-Phe-OMe)
132 to 134	CC1=C(c2cccc(C(F)(F)F)c2)n2ncc(C#N)c2N(C(=O)CN2CCN(c3ccccn3)CC2)C1
66	CCCCOC(=O)C(C)Oc1ccc(COc2ccc(Cl)cc2)cc1 (stereo not drawn)

melting point [°C]	SMILES
123 to 124	CN1CCc2c(c3ccccc3n2CCC(=O)NN)C1
182 to 183	CCCn1nc2c(N)nc3ccccc3c2c1CC(C)(C)NC(C)=O
91 to 92.5	CN(C)CCC(=O)N1Cc2cccc3c2N(CC3)c2ccccc21
159 to 161	CC(=O)OCCC1CCn2c(c(C3=C(c4cn(C)c5ccccc45)C(=O)OC3=O)c3ccccc32)C1 (stereo not drawn)
208 to 210	c1ccc(C(NC2C3CC4CC(C3)CC2(OCc2ccc(-c3nc5ccccc5o3)cc2)C4)(c2ccccc2)c2ccccc2)cc1 (stereo not drawn)
202 to 203	O=C(Nc1cccc(C(F)(F)F)c1)c1cc(-c2ccc(F)cc2F)ccc1O
> 300	O=c1ccc2c(-c3ccc(O)cc3)nccc2[nH]1
235 to 236	O=Cc1ccc2oc(-c3ccc4ccc(Cl)cc4n3)cc2c1
352 to 355	O=C(O)c1ccc(-c2nc3ccc([N+](=O)[O-])cc3s2)cc1
146 to 147	CCC(=O)Oc1ccc(C(=O)Nc2ccc3cc(CN4CCCC4)cnc3c2C)cc1
163	CCOC(=O)c1ccc2c(c1)N(C(=O)C(C)Br)c1ccccc1C=C2 (stereo not drawn)
77 to 78	COC(=O)Cc1ccccc1OCc1cncc(OCc2nc(-c3ccccc3)oc2C)c1
148 to 150	CCCCCCOc1ccc2c(c1)c(CC(=O)O)c(C)n2Cc1ccc(Cl)cc1
179	Cc1oncc1C(=O)Nc1ccc(NC(=O)CBr)cc1
132 to 134	C=CCn1c(=O)c(C(=O)OCC)c(N)c2ccccc21
146	OC1CSC(Oc2ccc(-c3ccco3)nc2)C(O)C1O (stereo not drawn)
178 to 180	Cc1cccc2c(C(=O)O)c(O)c(-c3ccc(-c4ccccc4)cc3)nc12
139 to 141	C/C(=C\C=C(c1ccccc1)c1ccccc1)C(=O)Oc1ccc([N+](=O)[O-])cc1
202	Cc1nn(CCOc2ccc(C=C3SC(=O)NC3=O)cc2)c(=O)c2ccccc12
222 to 223	Oc1c(Br)cc(-c2c3ccccc3c(Cl)c3sc4ccccc4c23)cc1Br
278	Cc1ccc(C(=O)C2=C(O)C(=O)N(c3ccc(C)nn3)C2c2ccc(C(F)(F)F)cc2)cc1 (stereo not drawn)
97	CC(=O)/C(=C/I)c1ccccc1
162 to 164	O=c1c2cc(Br)ccc2ncn1Cc1cccnc1
231 to 234	COc1cc2c(cc1C#Cc1ccc(C(=O)O)cc1)C(C)(C)CCC2(C)C
